Reference: patent US6479527B1, “Bicyclic pyrrole derivatives as MCP-1 inhibitors” (AstraZeneca UK Limited, priority 1998, dated 2002)
Read-outs that look alike come from different tables or passages of the source.

Columns and labels:
[1] = system: RANTES induced chemotaxis of THP-1 cells; assay: RANTES chemotaxis assay; format: cell-based; conditions: Homo sapiens, 2 nM RANTES as chemoattractant
Description: (§1) c) hMCP-1 Mediated Chemotaxis and RANTES Assay.
(§2) In vitro chemotaxis assays were performed using either the human monocytic cell line THP-1 or peripheral blood mixed monocytes obtained from fresh human blood purified by erythrocyte sedimentation followed by density gradient centrifugation over 9.6% (w/v) sodium metrizoate and 5.6% (w/v) polysaccharide, density 1.077 g/ml (Lymphoprep™ Nycomed). Cell migration through polycarbonate membranes was measured by enumerating those passing through either directly by Coulter counting or indirectly by use of a colourimetric viability assay measuring the cleavage of a tetrazolium salt by the mitochondrial respiratory chain (Scudiero D. A. et al. 1988, Cancer Res., 48, 4827-4833).
(§3) Chemoattractants were introduced into a 96-well microtiter plate which forms the lower well of a chemotaxis chamber fitted with a PVP-free 5 μm poresize polycarbonate adhesive framed filter membrane (NeuroProbe MB series, Cabin John, Md. 20818, USA) according to the manufacturer's instructions. The chemoattractant was diluted as appropriate in synthetic cell culture medium, RPMI 1640 (Gibco) or supplemented with 2 mM glutamine and 0.5% BSA, or alternatively with HBSS with Ca2+ and Mg2+ without Phenol Red (Gibco) plus 0.1% BSA. […] The plate was incubated at 37° C. for 3 h and the absorbance of the soluble formazan product was read on a microtitre plate reader at 450 nm. […]

[2] = biological target: T1, MCP-1 receptor B (CCR2B) (Homo sapiens, UniProt P41597); assay: hMCP-1 receptor-binding assay
T1 construct: expressed in transfected cells; host or cells: CHO-K1 (clone 7, CHO-CCR2B), membrane fragments
T1 sequence (P41597 1-360 isoform P41597-2): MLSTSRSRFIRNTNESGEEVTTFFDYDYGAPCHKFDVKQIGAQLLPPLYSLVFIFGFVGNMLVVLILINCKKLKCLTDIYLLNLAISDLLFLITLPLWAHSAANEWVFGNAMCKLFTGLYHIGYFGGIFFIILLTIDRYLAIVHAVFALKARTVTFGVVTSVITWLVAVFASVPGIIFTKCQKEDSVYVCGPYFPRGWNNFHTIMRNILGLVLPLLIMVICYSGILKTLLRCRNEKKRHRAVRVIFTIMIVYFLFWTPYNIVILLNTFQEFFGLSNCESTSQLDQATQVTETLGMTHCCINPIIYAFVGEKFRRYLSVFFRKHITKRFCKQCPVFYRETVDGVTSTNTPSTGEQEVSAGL
Description: a) hMCP-1 Receptor-binding Assay i) Clonning and expression of hMCP-1receptor
The MCP-1 receptor B (CCR^2B) cDNA was cloned by PCR from THP-1 cell RNA using suitable oligonucleotide primers based on the published MCP-1 receptor sequences (Charo et al., 1994, Proc. Natl. Acad Sci. USA, 91, 2752). The resulting PCR products were cloned into vector PCR-II™ (InVitrogen, San Diego, Calif.). Error free CCR2B cDNA was subcloned as a Hind III-Not I fragment into the eukaryotic expression vector pCDNA3 (InVitrogen) to generate pCDNA3/CC-CKR2A and pCDNA3/CCR2B respectively.
Linearised pCDNA3/CCR2B DNA was transfected into CHO-K1 cells by calcium phosphate precipitation (Wigler et al., 1979, Cell, 16, 777). Transfected cells were selected by the addition of Geneticin Sulphate (G418, Gibco BRL) at 1 mg/ml, 24 hours after the cells had been transfected. Preparation of RNA and Northern blotting were carried out as described previously (Needham et al., 1995, Prot. Express. Purific., 6, 134). CHO-K1 clone 7 (CHO-CCR^2B) was identified as the highest MCP-1 receptor B expressor. […]
ii) Preparation of membrane fragments […]
^125I MCP-1 was prepared using Bolton and Hunter conjugation (Bolton et al., 1973, Biochem. J., 133, 529; Amersham International plc]. Equilibrium binding assays were carried out using the method of Ernst et al., 1994, J. Immunol., 152, 3541. Briefly, varying amounts of ^125I-labeled MCP-1 were added to […] of purified CHO-CCR2B cell membranes in […] of Binding Buffer. After 1 hour incubation at room temperature the binding reaction mixtures were filtered and washed 5 times through a plate washer (Packard Harvester Filtermate™ 196). Scintillation fluid (25 μl, Microscint™-20, a high efficiency liquid scintillation counting cocktail for aqueous samples) was added to each well and the plate was covered with plate sealer and counted (Packard Top Count™). […] Non-specific binding was determined by the inclusion of a 200-fold molar excess of unlabelled MCP-1 in the reaction. […]

[3] = system: hMCP-1 mediated chemotaxis of THP-1 cells; assay: hMCP-1 mediated chemotaxis assay; format: cell-based, human
Description: as §1, §2, §3

[4] = system: THP-1 cells; assay: MCP-1 mediated calcium flux in THP-1 cells; format: cell-based, human; conditions: stimulation of THP-1 cells with hMCP-1, approximate, from dose response curves; read-out: EC50 for transient rise in [Ca2+]i
Description: b) MCP-1 Mediated Calcium Flux in THP-1 Cells
The human monocytic cell line THP-1 was grown in a synthetic cell culture medium RPMI 1640 supplemented with 10% foetal calf serum, 2 mM glutamine and Penicillin-Streptomycin (at 50 μg streptomycin/ml, Gibco BRL). THP-1 cells were washed in HBSS (lacking Ca^2+ and Mg^2+) +1 mg/ml BSA and resuspended in the same buffer at a density of 3×10^6 cells/ml. The cells were then loaded with […]-FURA-2/AM for 30 min at 37° C., washed twice in HBSS, and resuspended at 1×10^6 cells/ml. […] The cuvette was placed in a fluorescence spectrophotometer (Perkin Elmer, Norwalk, Conn.) and preincubated for 4 min at 37° C. with stirring. Fluorescence was recorded over 70 sec and cells were stimulated by addition of hMCP-1 to the cuvette after 10 sec. [Ca^2+]i was measured by excitation at 340 nm and 380 nm alternately and subsequent measurement of the intensity of the fluorescence emission at 510 nm.
where the Kd for FURA-2 Ca^2+ complex at 37° C. was taken to be […]. Rmax is the maximal fluorescence ratio determined after addition of […] lonomycin, Rmin is the minimal ratio determined by the subsequent addition of a Ca^2+ free solution containing 5 mM EGTA, and Sf2/Sb2 is the ratio of fluorescence values at 380 nm excitation determined at Rmin and Rmax, respectively. […]

With O=C(O)c1cc2sccc2n1Cc1ccc(Cl)c(Cl)c1 [Compound No. 8, 4-(3,4-Dichlorobenzyl)thieno[3,2-b]pyrrole-5-carboxylic acid] the IC50 [1] was 2660 nM.

With Nc1cccc(-c2cc3c(cc(C(=O)O)n3Cc3ccc(Cl)c(Cl)c3)s2)c1 [Compound No. 13, 2-(3-Aminophenyl)-4-(3,4-dichlorobenzyl)thieno[3,2-b]pyrrole-5-carboxylic acid] the IC50 ([2]; competition with 100 pM labelled MCP-1, CHO-CCR2B cell membranes, read-out: IC50 in the hMCP-1 receptor binding assay) was 8300 nM.

In the case of O=C(O)c1cc2occc2n1S(=O)(=O)c1ccc(Cl)c(Cl)c1 [Compound No. 20, 4-(3,4-Dichlorobenzenesulfonyl)furo[3,2-b]pyrrole-5-carboxylic acid], the IC50 ([3]; Homo sapiens, 1 nM MCP-1 as chemoattractant, THP-1 cells) is reported as 1660 nM.

“MCP-1: Monocyte Chemoattractant Protein-1, a C—C chemokine; ligand of the CCR2 receptor” was tested, and the EC50 [4] was about 2 nM, the IC50 ([2]; membrane fragments from CHO-CCR2B cells, cold competition with 125I-labeled MCP-1, read-out: IC50 of MCP-1 binding to CCR2B) was 0.11 nM and the Kd ([2]; membrane fragments from CHO-CCR2B cells, equilibrium binding) was 0.12 nM. For the same molecule, the “concentration of maximal cell migration (biphasic response)” value ([3]; hMCP-1 as chemoattractant, concentration dependent cell migration) was 0.5-1.0 nm.
